Earlier results, collected in US20090214643A1, “IMPROVED PHARMACOKINETIC PROFILE OF BETA-ADRENERGIC INVERSE AGONISTS FOR THE TREATMENT OF PULMONARY AIRWAY DISEASES” (priority 2005, published 2009).

Key:
[1] = single dose, Corgard product insert

| Structure (SMILES) | effect on airway function observed in asthmatics (asthmatics; literature 1962, 1964) | response of asthmatics to beta blocker administration (asthmatics; medical literature accounts) | average Tmax (time to peak serum level) [1] |
| --- | --- | --- | --- |
| CC(C)NCC(O)c1ccc2ccccc2c1 (stereo not drawn) [pronethalol] | reduction in airway function | – | – |
| CC(C)(C)NCC(O)COc1cccc2c1CC(O)C(O)C2 (stereo not drawn) [nadolol] | – | serious pulmonary function reduction | 3.5 h |
